According to ChEMBL document CHEMBL1201862, “PubChem BioAssay data set” (2004):
The source made the active and inactive calls.

Experiments:
[1] = biological target: T1, Sentrin-specific protease 8 (Homo sapiens, UniProt Q96LD8); format: functional
T1 sequence (Q96LD8 whole entry): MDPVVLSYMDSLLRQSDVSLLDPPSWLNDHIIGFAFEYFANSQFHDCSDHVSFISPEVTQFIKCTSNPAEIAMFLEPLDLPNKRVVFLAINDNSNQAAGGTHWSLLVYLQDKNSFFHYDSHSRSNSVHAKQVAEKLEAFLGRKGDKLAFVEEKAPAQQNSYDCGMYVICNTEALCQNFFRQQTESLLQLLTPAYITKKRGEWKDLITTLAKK

[2] = biological target: T1, Sentrin-specific protease 8; format: functional; remark: listed apart in the source
[3] = miR-122 activators in hepatoma reporter cells, dose response, cell-based, Huh7 psiCHECK-miR122, Renilla luciferase, cherry-picked (AID 651956); format: functional;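 note: huh7 hepatoma cells stably carrying a psiCHECK-2 miR-122 sensor plasmid; renilla luciferase signal reporting endogenous miR-122 activity after 48 h compound exposure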
[4] = HeLa cell cytotoxicity, dose response, cytotoxicity control for MgcRacGAP inhibitor project (AID 624300); format: functional
[5] = biological target: T2, DNA repair protein RAD52 homolog (Homo sapiens, UniProt P43351); format: functional, biochemical
T2 sequence (P43351 whole entry): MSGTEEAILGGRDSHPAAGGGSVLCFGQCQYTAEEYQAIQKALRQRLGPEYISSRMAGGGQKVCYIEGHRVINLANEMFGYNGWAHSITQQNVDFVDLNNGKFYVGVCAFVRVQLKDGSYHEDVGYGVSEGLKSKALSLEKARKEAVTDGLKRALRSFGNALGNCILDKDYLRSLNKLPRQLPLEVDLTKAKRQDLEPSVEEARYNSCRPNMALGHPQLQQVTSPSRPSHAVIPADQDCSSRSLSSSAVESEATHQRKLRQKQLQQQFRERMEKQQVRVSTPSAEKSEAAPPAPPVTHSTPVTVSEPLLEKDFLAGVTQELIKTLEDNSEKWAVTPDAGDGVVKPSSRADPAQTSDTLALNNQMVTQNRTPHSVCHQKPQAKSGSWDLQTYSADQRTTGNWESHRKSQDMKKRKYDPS

[6] = biological target: T3, DNA repair and recombination protein RAD54-like (Homo sapiens, UniProt Q92698); test: inhibitors of human RAD54 branch migration, confirmation, biochemical, fluorescence, cherry-picked samples, dose series (AID 651657); format: functional
T3 sequence (Q92698 whole entry): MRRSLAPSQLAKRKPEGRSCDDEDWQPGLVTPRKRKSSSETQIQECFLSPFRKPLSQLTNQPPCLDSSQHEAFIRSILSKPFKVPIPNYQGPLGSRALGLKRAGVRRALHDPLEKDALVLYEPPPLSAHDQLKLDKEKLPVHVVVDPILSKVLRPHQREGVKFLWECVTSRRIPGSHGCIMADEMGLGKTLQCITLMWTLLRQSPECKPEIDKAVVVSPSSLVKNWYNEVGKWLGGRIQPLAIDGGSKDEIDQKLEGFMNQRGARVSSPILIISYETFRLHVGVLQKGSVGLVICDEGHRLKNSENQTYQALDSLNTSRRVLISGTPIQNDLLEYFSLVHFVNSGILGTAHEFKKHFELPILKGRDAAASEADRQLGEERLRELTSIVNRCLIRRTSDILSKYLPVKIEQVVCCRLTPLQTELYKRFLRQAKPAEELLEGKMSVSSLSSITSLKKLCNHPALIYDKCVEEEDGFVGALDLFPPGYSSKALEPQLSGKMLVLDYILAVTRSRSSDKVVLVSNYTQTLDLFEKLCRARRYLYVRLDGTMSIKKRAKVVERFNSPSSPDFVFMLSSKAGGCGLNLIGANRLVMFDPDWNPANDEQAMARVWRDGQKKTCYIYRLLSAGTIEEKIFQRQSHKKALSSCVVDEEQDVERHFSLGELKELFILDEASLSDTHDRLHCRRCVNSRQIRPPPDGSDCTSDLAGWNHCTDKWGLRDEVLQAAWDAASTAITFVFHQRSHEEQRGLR

[7] = MDA-MB-231 cell growth inhibition, dose response, cytotoxicity control for RAD54 inhibitor project, CellTiter-Glo luminescence, cherry-pick (AID 651692); format: functional, cell-based
[8] = cytotoxicity toward NIH3T3 fibroblasts, dose response, counter-screen, cell-based, ATP luminescence, mouse fibroblasts (AID 2010); format: functional;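 note: cells exposed to compound for about 90 hours before reading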
[9] = biological target: T4, Short transient receptor potential channel 4 (Mus musculus, UniProt Q9QUQ5); test: mouse TRPC4 channel activators, dose response, cell-based, HEK293 TRPC4/mu-opioid, Fluo-4 calcium (AID 434937); format: functional
T4 sequence (Q9QUQ5 whole entry): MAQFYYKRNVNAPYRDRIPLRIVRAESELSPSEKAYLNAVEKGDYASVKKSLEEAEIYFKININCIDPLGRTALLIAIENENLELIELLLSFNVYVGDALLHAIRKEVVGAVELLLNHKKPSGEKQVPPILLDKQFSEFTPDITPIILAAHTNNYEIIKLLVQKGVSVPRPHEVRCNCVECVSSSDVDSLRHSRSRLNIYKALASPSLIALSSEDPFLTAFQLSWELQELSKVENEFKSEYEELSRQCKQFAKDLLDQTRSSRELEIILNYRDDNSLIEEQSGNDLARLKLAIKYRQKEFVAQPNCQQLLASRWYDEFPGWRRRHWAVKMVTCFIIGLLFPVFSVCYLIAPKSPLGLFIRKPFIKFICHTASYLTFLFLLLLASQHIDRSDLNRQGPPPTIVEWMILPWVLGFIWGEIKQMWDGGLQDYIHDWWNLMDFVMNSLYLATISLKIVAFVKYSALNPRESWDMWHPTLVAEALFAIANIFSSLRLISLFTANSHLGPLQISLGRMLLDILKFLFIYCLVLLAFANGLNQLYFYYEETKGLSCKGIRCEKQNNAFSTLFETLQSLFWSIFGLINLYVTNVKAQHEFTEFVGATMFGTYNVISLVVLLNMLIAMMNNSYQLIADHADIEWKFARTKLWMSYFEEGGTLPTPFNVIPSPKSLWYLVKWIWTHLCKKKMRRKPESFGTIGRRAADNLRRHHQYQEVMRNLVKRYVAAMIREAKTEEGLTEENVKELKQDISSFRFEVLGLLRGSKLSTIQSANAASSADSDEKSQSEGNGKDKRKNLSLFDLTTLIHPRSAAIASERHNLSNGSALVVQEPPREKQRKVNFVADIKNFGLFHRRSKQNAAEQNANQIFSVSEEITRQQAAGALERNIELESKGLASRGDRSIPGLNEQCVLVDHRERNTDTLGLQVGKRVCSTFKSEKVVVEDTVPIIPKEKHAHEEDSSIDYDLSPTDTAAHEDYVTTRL

[10] = THP-1 cell cytotoxicity, dose response, cytotoxicity control for non-replicating M. tuberculosis project (AID 489025); format: functional
cells = format: functional
[11] = Vero E6 cell cytotoxicity, dose response, cytotoxicity control for non-replicating M. tuberculosis project, secondary assay (AID 492998); format: functional, VeroE6; settings: Vero C1008
[12] = biological target: T5, Rac GTPase-activating protein 1 (Homo sapiens, UniProt Q9H0H5); test: MgcRacGAP GTPase-activating activity inhibitors, confirmation, biochemical, ADP Hunter fluorescence, primary and confirmatory (AID 624330); format: functional
T5 sequence (Q9H0H5 whole entry): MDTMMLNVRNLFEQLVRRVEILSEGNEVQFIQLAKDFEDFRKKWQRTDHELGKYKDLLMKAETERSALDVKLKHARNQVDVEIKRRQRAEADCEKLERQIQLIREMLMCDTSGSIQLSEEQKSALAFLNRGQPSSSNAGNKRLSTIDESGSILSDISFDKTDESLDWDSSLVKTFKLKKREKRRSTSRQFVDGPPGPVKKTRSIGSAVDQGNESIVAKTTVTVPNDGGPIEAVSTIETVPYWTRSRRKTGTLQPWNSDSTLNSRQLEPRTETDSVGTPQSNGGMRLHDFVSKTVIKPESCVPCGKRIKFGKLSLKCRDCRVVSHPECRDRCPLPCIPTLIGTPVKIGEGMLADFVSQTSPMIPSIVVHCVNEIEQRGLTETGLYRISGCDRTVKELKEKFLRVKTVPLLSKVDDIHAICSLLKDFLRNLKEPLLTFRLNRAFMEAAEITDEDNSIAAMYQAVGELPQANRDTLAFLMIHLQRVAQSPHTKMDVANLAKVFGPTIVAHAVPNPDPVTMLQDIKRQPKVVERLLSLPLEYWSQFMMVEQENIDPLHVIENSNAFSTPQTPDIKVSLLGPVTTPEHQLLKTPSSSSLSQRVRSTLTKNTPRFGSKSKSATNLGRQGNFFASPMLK

[13] = inhibitors of intracellular T. cruzi replication, confirmation, NIH3T3 host cells, beta-gal luminescence (AID 2044); format: functional, cell-based;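 note: intracellular parasites grown in NIH/3T3 mouse fibroblasts as host cells; luminescent beta-galactosidase reporter signal from transgenic T. cruzi replicating inside host cells; inhibitors lower the luminescence signal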
[14] = HepG2 cell cytotoxicity, dose response, cytotoxicity control for non-replicating M. tuberculosis project (AID 489018); format: functional; settings: Mycobacterium tuberculosis

COC(=O)CCCC1=CC2=CC(=O)C(C)(OC(=O)c3cccs3)C(=O)C2=CN1C1CC1 (stereo unspecified)
active: IC50 [1] 17.3 µM | IC50 [2] 7.17 µM

COC(=O)C[C@H]1CC[C@H]2[C@@H](COc3ccc(NC(=O)Nc4c(C)noc4C)cc3C(=O)N2C)O1
active: AC50 [3] 40.4 µM

C[C@H](CO)N1C[C@H](C)[C@@H](CN(C)Cc2ccc(-c3ccccc3)cc2)Oc2ncc(C#CCN(C)C)cc2C1=O
active: AC50 [3] 20.3 µM

CCCCN(CC)CCNC(=O)c1cc2c(-c3ccc(Cl)cc3)nn(C)c2s1
active: CC50 [4] 55.5 µM | AC50 [5] 6.76 µM | AC50 [6] 21.7 µM | AC50 [7] 23.7 µM | EC50 [8] 8.44 µM | EC50 [9] 0.211 µM | CC50 [10] 13.7 µM | IC50 (cells) 9.15 µM | CC50 [11] 12.9 µM | IC50 [12] 229 µM | EC50 [13] 0.809 µM | CC50 [14] 5.62 µM
